US7776819B2, “Targeted drug delivery of pain and addiction therapies using opioid receptor-mediated internalization” (The Board of Trustees of the University of Illinois, priority 2005, dated 2010)
Where a SMILES comes first, the peptide text is derived from it.

Biological target: T1, human mu opioid receptors (hMOR) (Homo sapiens, UniProt P35372)
T1 construct: expressed in transfected cells; host or cells: CHO cells, stably transfected (G418 selection); membrane preparation
Experiment: [3H]DAMGO displacement receptor binding assay, CHO-hMOR membranes
Description: Receptor membranes were prepared from CHO cells transfected with opioid mu receptors. Binding was performed at 30° C. in 50 mM pH 7.4 tris HCl buffer for 1 h for CHO-MOR (100 μg protein/reaction, 1 nM 3H-DAMGO). Reactions were terminated by vacuum filtration through GF/B filters pretreated with 0.2% polyethylenimine. These were then washed twice with ice-cold PBS. Filter-bound radioactivity was determined by liquid scintillation counting. Nonspecific binding was determined in the presence of 20 μM DAMGO.
Briefly, membranes were prepared from CHO-hMOR cells by Polytron homogenization at setting 6 for 2 min on ice, followed by centrifugation at 20,000 g for 30 min at 4° C. Protein content was determined by the Coomassie protein assay method (Pierce Biotechnology, Rockford, Ill.) and bovine serum albumin as the standard. MOR receptor binding was conducted in triplicate with 1 nM [^3H]DAMGO in 50 mM Tris HCl buffer (pH 7.4) at 30° C. for 1 h (50 μg protein/reaction). Nonspecific binding was determined in the presence of 20 μM unlabelled DAMGO. Reactions were terminated by rapid vacuum filtration through GF/B filters presoaked with 0.2% polyethylenimine. Filter-bound radioactivity was determined by liquid scintillation counting (Beckman Coulter Inc., Fullerton, Calif.). Binding data representing the mean ±SD were analyzed using Prism program (GraphPad Software, San Diego, Calif.).

T1 sequence (P35372 whole entry): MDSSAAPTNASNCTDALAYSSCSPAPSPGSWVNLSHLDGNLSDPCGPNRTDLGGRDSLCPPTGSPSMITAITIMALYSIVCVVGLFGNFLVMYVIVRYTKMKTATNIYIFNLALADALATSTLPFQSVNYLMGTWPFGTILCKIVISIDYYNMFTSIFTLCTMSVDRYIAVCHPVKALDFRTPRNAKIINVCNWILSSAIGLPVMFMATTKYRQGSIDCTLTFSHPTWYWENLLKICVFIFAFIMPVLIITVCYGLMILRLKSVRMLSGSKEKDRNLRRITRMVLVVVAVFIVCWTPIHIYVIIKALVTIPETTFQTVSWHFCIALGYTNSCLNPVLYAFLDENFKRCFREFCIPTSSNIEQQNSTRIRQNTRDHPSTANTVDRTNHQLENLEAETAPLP

Molecule `C[C@@H](NC(=O)[C@@H](N)Cc1ccc(O)cc1)C(=O)N[C@@H](Cc1ccccc1)C(=O)NCC(=O)N[C@@H](Cc1ccc(O)cc1)C(=O)N1CCC[C@H]1C(=O)N[C@@H](CO)C(=O)N[C@@H](CS)C(=O)O` [c-p-dermorphin] (HELM PEPTIDE1{Y.[dA].F.G.Y.P.S.C}$$$$V2.0) has an IC50 of 25.3 nM.
